Experimental data reported in ChEMBL document CHEMBL1147675, “Optimization of subsite binding to the beta5 subunit of the human 20S proteasome using vinyl sulfones and 2-keto-1,3,4-oxadiazoles: syntheses and cellular properties of potent, selective proteasome inhibitors” (J Med Chem, 2006).
≈ marks a conversion by molar mass, not a printed value. Peptide text beside a SMILES is read from it. * marks the point of attachment. Cbz = O=C(OCc1ccccc1)*; OtBu = CC(C)(C)O*

Assays:
in vitro = conditions: human, plasma
Description: Stability in human plasma after 120 mins

Cathepsin S = Cathepsin S (Homo sapiens, UniProt P25774)
Cathepsin S, sequence (P25774 whole entry): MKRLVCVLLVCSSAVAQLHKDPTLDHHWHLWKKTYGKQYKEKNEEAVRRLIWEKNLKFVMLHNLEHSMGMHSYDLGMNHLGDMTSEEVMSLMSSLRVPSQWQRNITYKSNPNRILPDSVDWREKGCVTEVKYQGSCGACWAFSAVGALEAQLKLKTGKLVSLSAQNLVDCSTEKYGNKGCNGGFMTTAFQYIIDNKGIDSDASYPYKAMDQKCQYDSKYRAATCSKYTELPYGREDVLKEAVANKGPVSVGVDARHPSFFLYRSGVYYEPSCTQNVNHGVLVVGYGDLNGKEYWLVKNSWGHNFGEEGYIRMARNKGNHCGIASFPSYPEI
Description: Inhibition of cathepsin S

Cathepsin B = Cathepsin B (Homo sapiens, UniProt P07858)
Description: Inhibition of cathepsin B

PC-3 = assay: cells; conditions: Homo sapiens
Description: Antiproliferative activity against human PC3 cell line

physchem = conditions: PBS, pH 7.4
Description: Solubility in PBS at pH 7.4

| Structure (SMILES) | remaining at 2 h (in vitro) | IC50 (Cathepsin S) | IC50 (Cathepsin B) | IC50 (PC-3) | solubility (physchem) | Ki (Cathepsin S) | Ki (Cathepsin B) |
| --- | --- | --- | --- | --- | --- | --- | --- |
| Cc1ccc(S(=O)(=O)N[C@@H](CCC(=O)OC(C)(C)C)C(=O)N[C@@H](C)C(=O)N[C@H](/C=C/S(C)(=O)=O)CC(C)C)cc1 | 7% | 67 µM | 13 µM | 0.5 µM | 48 µM (≈ 28.9 µg/mL) |  |  |
| COC[C@H](NC(=O)[C@H](CC(=O)NCC(C)(C)C)NS(=O)(=O)c1ccc(C)cc1)C(=O)N[C@@H](CC(C)C)C(=O)c1nnc(-c2ccccc2)o1 | 79% |  |  |  | 37 µM (≈ 25.9 µg/mL) | 8.1 µM | 44 µM |
| CC[C@H](C)[C@H](NC(=O)OCc1ccccc1)C(=O)N[C@@H](CS(C)(=O)=O)C(=O)N[C@@H](C)C(=O)N[C@H](/C=C/S(C)(=O)=O)CC(C)C |  | 13 µM | 140 µM |  |  |  |  |
| CC[C@H](C)[C@H](NC(=O)OCc1ccccc1)C(=O)N[C@@H](CCC(=O)NC(C)(C)C)C(=O)N[C@@H](C)C(=O)N[C@H](/C=C/S(C)(=O)=O)CC(C)C | 89% | 3.3 µM | 51 µM | 5000 µM | 57 µM (≈ 39.6 µg/mL) |  |  |
| Cc1ccc(S(=O)(=O)N[C@@H](CC(=O)NCC(C)(C)C)C(=O)NC(C)(C)C(=O)N[C@H](/C=C/S(C)(=O)=O)CC(C)C)cc1 | 100% |  |  |  | 500 µM (≈ 307 µg/mL) |  |  |
| CC[C@H](C)[C@H](NC(=O)OCc1ccccc1)C(=O)N[C@@H](CS(=O)(=O)Cc1ccccc1)C(=O)N[C@@H](C)C(=O)N[C@H](/C=C/S(C)(=O)=O)CC(C)C |  | 12 µM | > 150 µM |  |  |  |  |
| CC(=O)N[C@@H](CCC(=O)OC(C)(C)C)C(=O)N[C@@H](C)C(=O)N[C@H](/C=C/S(C)(=O)=O)CC(C)C |  | 170 µM | 77 µM | 7.5 µM |  |  |  |
| CC[C@H](C)[C@H](NC(=O)OCc1ccccc1)C(=O)N[C@@H](COCc1ccccc1)C(=O)N[C@@H](C)C(=O)N[C@H](/C=C/S(C)(=O)=O)CC(C)C | 83% | 35 µM | 38 µM | 0.45 µM |  |  |  |
| CC[C@H](C)[C@H](NC(=O)OCc1ccccc1)C(=O)N[C@@H](Cc1ccccc1)C(=O)N[C@@H](C)C(=O)N[C@H](/C=C/S(C)(=O)=O)CC(C)C |  | 9 µM | 27 µM |  |  |  |  |
| CC(C)C[C@@H](/C=C/S(C)(=O)=O)NC(=O)[C@H](CO)NC(=O)[C@H](CCC(=O)OC(C)(C)C)NC(=O)OCc1ccccc1 |  |  |  | 3 µM |  |  |  |
| Cc1ccc(S(=O)(=O)N[C@@H](CC(=O)NCC(C)(C)C)C(=O)N[C@@H](C)C(=O)NC(C)(C)C(=O)c2nnc(-c3ccccc3)o2)cc1 | 100% |  |  |  | 249 µM (≈ 160 µg/mL) |  |  |
| CC(C)C[C@@H](/C=C/S(C)(=O)=O)NC(=O)CNC(=O)[C@H](CCC(=O)OC(C)(C)C)NC(=O)OCc1ccccc1 |  | 21 µM | > 150 µM |  |  |  |  |
| Cc1cccc(S(=O)(=O)N[C@@H](CC(=O)NCC(C)(C)C)C(=O)N[C@@H](C)C(=O)N[C@@H](CC(C)C)C(=O)c2nnc(-c3ccccc3)o2)c1 | 28% |  |  |  | < 10 µM |  |  |
| CC[C@H](C)[C@H](NC(=O)OCc1ccccc1)C(=O)N[C@@H](CCC(N)=O)C(=O)N[C@@H](C)C(=O)N[C@H](/C=C/S(C)(=O)=O)CC(C)C |  | 48 µM | 54 µM |  |  |  |  |
| CC[C@H](C)[C@H](NC(=O)OCc1ccccc1)C(=O)N[C@@H](CC(C)C)C(=O)N[C@@H](C)C(=O)N[C@H](/C=C/S(C)(=O)=O)CC(C)C | 66% | 0.7 µM | 5.8 µM | 0.8 µM |  |  |  |
| CC(C)C[C@@H](/C=C/S(C)(=O)=O)NC(=O)[C@H](CO)NC(=O)[C@H](CCC(=O)OC(C)(C)C)NS(=O)(=O)c1ccccc1 |  |  |  | 4 µM |  |  |  |
| CC(=O)N[C@@H](CCc1ccccc1)C(=O)N[C@@H](CC(C)C)C(=O)N[C@@H](Cc1ccccc1)C(=O)N[C@H](/C=C/S(C)(=O)=O)CC(C)C | 100% | 0.15 µM | 0.85 µM | 3 µM |  |  |  |
| CC(=O)N[C@@H](CCc1ccccc1)C(=O)N[C@@H](CC(C)C)C(=O)N[C@@H](C)C(=O)N[C@H](/C=C/S(C)(=O)=O)CC(C)C |  | 6.9 µM | 1.6 µM |  |  |  |  |
| CC[C@H](C)[C@H](NC(=O)OCc1ccccc1)C(=O)N[C@@H](CCC(=O)NC(C)(C)CC)C(=O)N[C@@H](C)C(=O)N[C@H](/C=C/S(C)(=O)=O)CC(C)C | 83% |  |  | 0.55 µM | 20 µM (≈ 14.2 µg/mL) |  |  |
| CC(C)C[C@@H](C#N)NC(=O)[C@H](CC(C)C)NC(=O)[C@H](CC(C)C)NC(=O)OCc1ccccc1 |  |  |  |  |  | 0.046 µM | 18 µM |

| Structure (SMILES) | remaining at 2 h (in vitro) | IC50 (Cathepsin S) | IC50 (Cathepsin B) | IC50 (PC-3) | solubility (physchem) | Ki (Cathepsin S) | Ki (Cathepsin B) |
| --- | --- | --- | --- | --- | --- | --- | --- |
| CC[C@H](C)[C@H](NC(=O)OCc1ccccc1)C(=O)N[C@@H](CCC(=O)NC(C)C)C(=O)N[C@@H](C)C(=O)N[C@H](/C=C/S(C)(=O)=O)CC(C)C | 89% | 41 µM | > 150 µM | 3000 µM |  |  |  |
| CC(C)C[C@@H](/C=C/S(C)(=O)=O)NC(=O)[C@H](C)NC(=O)[C@H](CCC(=O)OC(C)(C)C)NC(=O)C(c1ccccc1)c1ccccc1 | 1% |  |  | 0.5 µM | < 10 µM |  |  |
| CC[C@H](C)[C@H](NC(=O)OCc1ccccc1)C(=O)N[C@@H](CC(=O)NCC(C)(C)C)C(=O)N[C@@H](C)C(=O)N[C@H](/C=C/S(C)(=O)=O)CC(C)C | 90% |  |  | 0.2 µM | < 10 µM |  |  |
| Cc1ccc(S(=O)(=O)N[C@@H](CC(=O)NCC(C)(C)C)C(=O)N[C@@H](C)C(=O)N[C@@H](CC(C)C)C(=O)c2nnc(-c3ccc(N(C)C)cc3)o2)cc1 | 72% |  |  |  | < 10 µM |  |  |
| Cc1ccc(S(=O)(=O)N[C@@H](CC(=O)NCC(C)(C)C)C(=O)N[C@@H](C)C(=O)N[C@@H](CC(C)C)C(=O)c2nnc(-c3ccccc3)o2)cc1 | 86% |  |  |  | 13 µM (≈ 8.69 µg/mL) | 39 µM | 72 µM |
| CC[C@H](C)[C@H](NC(=O)OCc1ccccc1)C(=O)N1CCC[C@H]1C(=O)N[C@@H](C)C(=O)N[C@H](/C=C/S(C)(=O)=O)CC(C)C |  | 13 µM | 23 µM |  |  |  |  |
| CC[C@H](C)[C@H](NC(=O)OCc1ccccc1)C(=O)N[C@@H](CCC(=O)OC(C)(C)C)C(=O)N[C@@H](C)C(=O)N[C@H](C=O)CC(C)C (Cbz-IE(OtBu)AL-aldehyde) |  |  |  | 0.375 µM |  |  |  |
| CC(C)C[C@@H](/C=C/S(C)(=O)=O)NC(=O)[C@H](C)NC(=O)[C@H](CCC(=O)OC(C)(C)C)NC(=O)c1ccccc1 |  |  |  | 1.75 µM |  |  |  |
| CC(C)C[C@@H](/C=C/S(C)(=O)=O)NC(=O)[C@H](C)NC(=O)[C@H](CCC(=O)OC(C)(C)C)NC(=O)OCc1ccccc1 | 1% | 3 µM | 20 µM | 6.5 µM | < 10 µM |  |  |
| CC[C@H](C)[C@H](NC(=O)OCc1ccccc1)C(=O)N[C@@H](CCC(=O)OC1CCCCC1)C(=O)N[C@@H](C)C(=O)N[C@H](/C=C/S(C)(=O)=O)CC(C)C | 0% |  |  |  |  |  |  |
| CC[C@H](C)[C@H](NC(=O)OCc1ccccc1)C(=O)N[C@@H](CCCC(=O)OC(C)(C)C)C(=O)N[C@@H](C)C(=O)N[C@H](/C=C/S(C)(=O)=O)CC(C)C | 20% | 7.1 µM | 18 µM |  |  |  |  |
| CC(=O)N[C@@H](CCc1ccccc1)C(=O)N[C@@H](CC(C)C)C(=O)N[C@H](C)C(=O)N[C@H](/C=C/S(C)(=O)=O)CC(C)C |  | 77 µM | > 150 µM |  |  |  |  |
| Cc1ccc(S(=O)(=O)N[C@@H](CC(=O)NCC(C)(C)C)C(=O)N[C@@H](CO)C(=O)N[C@H](/C=C/S(C)(=O)=O)CC(C)C)cc1 | 99% | > 150 µM | > 150 µM | 2.4 µM | 381 µM (≈ 235 µg/mL) |  |  |
| CC[C@H](C)[C@H](NC(=O)OCc1ccccc1)C(=O)N[C@@H](CCC(=O)OC(C)(C)C)C(=O)N[C@@H](C)C(=O)N[C@H](/C=C/S(C)(=O)=O)CC(C)C | 52% | 36 µM | 29 µM | 2 µM | < 10 µM |  |  |
| CC(C)C[C@@H](C=O)NC(=O)[C@H](CC(C)C)NC(=O)[C@H](CC(C)C)NC(=O)OCc1ccccc1 [MG-132] (Cbz-Leu-Leu-Leu-aldehyde) |  |  |  | 0.6 µM |  |  | 0.012 µM |
| CC[C@H](C)[C@H](NC(=O)OCc1ccccc1)C(=O)N[C@@H](CCc1ccccc1)C(=O)N[C@@H](C)C(=O)N[C@H](/C=C/S(C)(=O)=O)CC(C)C | 22% | 10 µM | 41 µM | 0.6 µM | < 10 µM |  |  |
| CC[C@H](C)[C@H](NC(=O)OCc1ccccc1)C(=O)N[C@@H](CC(=O)OC(C)(C)C)C(=O)N[C@@H](C)C(=O)N[C@H](/C=C/S(C)(=O)=O)CC(C)C |  |  |  | 3.25 µM |  |  |  |
| Cc1ccc(S(=O)(=O)N[C@@H](CC(=O)NCC(C)(C)C)C(=O)N[C@@H](C)C(=O)N[C@H](/C=C/S(C)(=O)=O)CC(C)C)cc1 | 96% |  |  |  | 470 µM (≈ 282 µg/mL) |  |  |
| CC(=O)N[C@@H](CCc1ccccc1)C(=O)N[C@@H](CC(C)C)C(=O)NCC(=O)N[C@H](/C=C/S(C)(=O)=O)CC(C)C |  | 12 µM | > 150 µM |  |  |  |  |
